Laboratory results: patent US5885998A (priority 1998, dated 1999)

Columns and labels:
[1] = tested on: synaptosomes from the striatal area of rat brain (dopamine release); assay: Dopamine release from striatal synaptosomes; assay type: cell-based, rat (Sprague-Dawley)
Description: Dopamine release was measured by preparing synaptosomes from the striatal area of rat brain obtained from Sprague-Dawley rats generally according to the procedures set forth by Nagy et al., J. Neurochem., Vol. 43, pp. 1114-1123 (1984). Striata from 4 rats were homogenized in 2 ml of 0.32M sucrose buffered with 5 mM HEPES (pH 7.5), using a glass-Teflon tissue grinder. The homogenate was diluted to 5 ml with additional homogenization solution and centrifuged at 1,000×g for 10 min. This procedure was repeated on the new pellet and the resulting supernatant was centrifuged at 12,000×g for 20 min. A 3 layer discontinuous Percoll gradient consisting of 16 percent, 10 percent and 7.5 percent Percoll in HEPES-buffered sucrose was made with the final pellet dispersed in the top layer. […] Using this method, 30 to 90 percent of the dopamine was taken up into the synaptosomes, as determined by scintillation counting following filtration through glass fiber filters soaked with 0.5 percent polyethyleneimine. […] After the addition of 0.2 ml of a solution containing various concentrations of ligand, the perfusate was collected into scintillation vials at 1 min. intervals and the dopamine released was quantified by scintillation counting. Peaks of radioactivity released above background were summed and the average basal release during that time was subtracted from the total.

[2] = literature report; cited from earlier work
[3] = literature report; cited from earlier work; remark: listed apart in the source

For `CNCC/C=C\c1cccnc1` [Sample No. 5, (Z)-metanicotine], the “Dopamine Release Emax” value ([1]; release as percentage of release obtained with an equal concentration of (S)-(-)-nicotine) was 88 % nicotine.

For `CNCC/C=C/c1cccnc1` [Sample No. 8, (E)-metanicotine], the Emax ([1]; Rattus norvegicus) was 80%.

For `CN1CCCC1c1cccnc1` (stereo not shown) [nicotine], the “potentiation of certain pharmaceutical compositions used for treatment of certain CNS disorders” value [2] is given as “potentiates the pharmacological behavior of certain pharmaceutical compositions”.

For `CN1CCC[C@H]1c1cccnc1` [Sample No. C-1, (S)-(-)-nicotine], the “effect towards the treatment of various CNS disorders” value [3] is listed as “positive effect towards the treatment of various CNS disorders”.
